Legend:
[1] = in vitro; settings: human
Description: (§1) Black 384-well clear-bottom microtiter plates (Corning, Amsterdam, The Netherlands) were filled via acoustic drop ejection using the echo liquid handler (Labcyte, Sunnyvale, Calif.). 200 nL of compound stock solutions (100% DMSO) were transferred to the assay plates. 9 serial 4-fold dilutions of compound were made, creating per quadrant the same compound concentration. The assay was initiated by adding 10 μL of culture medium to each well (RPMI medium without phenol red, 10% FBS-heat inactivated, 0.04% gentamycin (50 mg/mL). All addition steps are done by using a multidrop dispenser (Thermo Scientific, Erembodegem, Belgium). Next, rgRSV224 virus (MOI=1) diluted in culture medium was added to the plates. rgRSV224 virus is an engineered virus that includes an additional GFP gene (Hallak L K, Spillmann D, Collins P L, Peeples M E. Glycosaminoglycan sulfation requirements for respiratory syncytial virus infection; Journal of virology (2000), 74(22), 10508-13) and was in-licensed from the NIH (Bethesda, Md., USA). Finally, 20 μL of a HeLa cell suspension (3,000 cells/well) were plated. Medium, virus- and mock-infected controls were included in each test. The wells contain 0.05% DMSO per volume. Cells were incubated at 37° C. in a 5% CO2 atmosphere. Three days post-virus exposure, viral replication was quantified by measuring GFP expression in the cells by an in house developed MSM laser microscope (Tibotec, Beerse, Belgium). The EC50 was defined as the 50% inhibitory concentration for GFP expression. In parallel, compounds were incubated for three days in a set of white 384-well microtiter plates (Corning) and the cytotoxicity of compounds in HeLa cells was determined by measuring the ATP content of the cells using the ATPlite kit (Perkin Elmer, Zaventem, Belgium) according to the manufacturer's instructions. The CC50 was defined as the 50% concentration for cytotoxicity.

[2] = system: rgRSV224 virus; assay: Antiviral activity: rgRSV224 (GFP) replication in HeLa cells; settings: human respiratory syncytial virus, 72 h, read-out: RSV HELA EC50
Description: as §1

[3] = Cytotoxicity in HeLa cells (ATP content, ATPlite kit); settings: human
Description: as §1

SMILES	CC50 at 3 days [1] [µM]	melting point [°C]	EC50 [2] [µM]	CC50 at 3 days [3] [µM]
C[C@@H]1c2ccccc2CCN1C(=O)c1cc(C2CC2)n2nc(-c3ccc([C@H]4C[C@@H]4C(=O)NS(=O)(=O)C4CC4)cc3F)cc2n1 [Compound 27, (1S,2S)—N-(Cyclopropanesulfonyl)-2-(4-{7-cyclopropyl-5-[(1R)-1-methyl-1,2,3,4-tetrahydroisoquinoline-2-carbonyl]pyrazolo[1,5-a]pyrimidin-2-yl}-3-fluorophenyl)-cyclopropane-1-carboxamide]	55.8	177.21	0.04	
C[C@@H]1c2ccccc2CCN1C(=O)c1cc(C2CC2)n2nc(-c3ccc([C@H]4C[C@@H]4NC(=O)NC4CC4)cc3F)cc2n1 [Compound 30, 1-Cyclopropyl-3-[(1S,2R)-2-(4-{7-cyclopropyl-5-[(1R)-1-methyl-1,2,3,4-tetrahydro-isoquinoline-2-carbonyl]pyrazolo[1,5-a]pyrimidin-2-yl}-3-fluorophenyl)cyclopropyl]urea]	40.8	213.73	0.049	
CC(=O)N[C@H]1C[C@@H]1c1ccc(-c2cc3nc(C(=O)N4CCc5ccccc5[C@H]4C)cc(C4CC4)n3n2)c(F)c1 [Compound 34, N-[(1S,2R)-2-(4-{7-Cyclopropyl-5-[(1R)-1-methyl-1,2,3,4-tetrahydroisoquinoline-2-carbonyl]pyrazolo[1,5-a]pyrimidin-2-yl}-3-fluorophenyl)cyclopropyl]acetamide]	> 100	232.53	0.022	
C[C@@H]1c2ccccc2CCN1C(=O)c1cc(C2CC2)n2nc(-c3ccc([C@H]4C[C@@H]4NP(C)(C)=O)cc3F)cc2n1 [Compound 37, (1R)-2-(7-Cyclopropyl-2-{4-[(1R,2S)-2-[(dimethylphosphoryl)amino]cyclopropyl]-2-fluorophenyl}pyrazolo[1,5-a]pyrimidine-5-carbonyl)-1-methyl-1,2,3,4-tetrahydroisoquinoline]			0.063	41.6
C[C@@H]1c2ccccc2CCN1C(=O)c1cc(C2CC2)n2nc(-c3ccc([C@H]4C[C@@H]4OC(N)=O)cc3F)cc2n1 [Compound 39, (1S,2R)-2-(4-{7-Cyclopropyl-5-[(1R)-1-methyl-1,2,3,4-tetrahydroisoquinoline-2-carbonyl]pyrazolo[1,5-a]pyrimidin-2-yl}-3-fluorophenyl)cyclopropyl carbamate]	12.5	297.87	0.082	
CNC(=O)O[C@H]1C[C@@H]1c1ccc(-c2cc3nc(C(=O)N4CCc5ccccc5[C@H]4C)cc(C4CC4)n3n2)c(F)c1 [Compound 40, (1S,2R)-2-(4-{7-Cyclopropyl-5-[(1R)-1-methyl-1,2,3,4-tetrahydroisoquinoline-2-carbonyl]pyrazolo[1,5-a]pyrimidin-2-yl}-3-fluorophenyl)cyclopropyl N-methylcarbamate]	> 100	274.46	0.138	
C[C@@H]1c2ccccc2CCN1C(=O)c1cc(C2CC2)n2nc(-c3ccc([C@H]4C[C@@H](CO)C4)cc3F)cc2n1 [Compound 42, [cis-3-(4-{7-Cyclopropyl-5-[(1R)-1-methyl-1,2,3,4-tetrahydroisoquinoline-2-carbonyl]-pyrazolo[1,5-a]pyrimidin-2-yl}-3-fluorophenyl)cyclobutyl]methanol]	69.2	129.63	0.263	
C[C@@H]1c2ccccc2CCN1C(=O)c1cc(C2CC2)n2nc(-c3ccc([C@H]4C[C@@H](COC(N)=O)C4)cc3F)cc2n1 [Compound 44, [cis-3-(4-{7-Cyclopropyl-5-[(1R)-1-methyl-1,2,3,4-tetrahydroisoquinoline-2-carbonyl]pyrazolo[1,5-a]pyrimidin-2-yl}-3-fluorophenyl)cyclobutyl]methyl carbamate]	> 100	300.97	0.332	
CNC(=O)C[C@H]1C[C@@H](c2ccc(-c3cc4nc(C(=O)N5CCc6ccccc6[C@H]5C)cc(C5CC5)n4n3)c(F)c2)C1 [Compound 48, N-methyl-2-[cis-3-(4-{7-cyclopropyl-5-[(1R)-1-methyl-1,2,3,4-tetrahydroisoquinoline-2-carbonyl]pyrazolo[1,5-a]pyrimidin-2-yl}-3-fluorophenyl)cyclobutyl]acetamide]	23.9	143.95	0.151	
